Measured values as given in ChEMBL document CHEMBL1201862, “PubChem BioAssay data set” (2004).
Where a name gives a salt, the structure may show the parent alone. One block for each molecule: values may come before it. Activity calls are given as the source filed them.

What was measured:
[1] = target: T1, Sentrin-specific protease 8 (Homo sapiens, UniProt Q96LD8); type: functional
T1 sequence (Q96LD8 whole entry): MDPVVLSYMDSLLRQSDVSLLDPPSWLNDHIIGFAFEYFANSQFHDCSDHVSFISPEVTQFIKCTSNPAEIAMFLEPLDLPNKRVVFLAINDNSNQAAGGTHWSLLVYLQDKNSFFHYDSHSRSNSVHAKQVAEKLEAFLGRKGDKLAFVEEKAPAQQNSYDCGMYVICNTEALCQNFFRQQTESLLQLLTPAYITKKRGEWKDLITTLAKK

[2] = target: T1, Sentrin-specific protease 8; type: functional; remark: listed apart in the source
[3] = target: T2, Caspase-6 (Homo sapiens, UniProt P55212); experiment: human caspase-6 inhibitors, dose response, biochemical, VEID-R110 fluorescence, cherry-pick (AID 720632)
T2 sequence (P55212 whole entry): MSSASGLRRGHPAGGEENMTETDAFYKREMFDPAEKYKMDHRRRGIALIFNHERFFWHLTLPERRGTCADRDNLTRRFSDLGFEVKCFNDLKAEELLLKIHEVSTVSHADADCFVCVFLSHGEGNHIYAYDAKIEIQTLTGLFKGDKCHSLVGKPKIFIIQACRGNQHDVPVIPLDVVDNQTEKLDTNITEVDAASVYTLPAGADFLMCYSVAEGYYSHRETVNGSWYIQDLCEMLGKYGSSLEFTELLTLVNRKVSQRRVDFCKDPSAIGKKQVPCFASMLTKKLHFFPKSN

[4] = target: T3, Caspase-9 (Homo sapiens, UniProt P55211); experiment: caspase-9 enzyme inhibition, dose response, selectivity assay for caspase-6 inhibitor project, biochemical, fluorescence, plate reader, cherry-picked samples (AID 743293)
T3 sequence (P55211 whole entry): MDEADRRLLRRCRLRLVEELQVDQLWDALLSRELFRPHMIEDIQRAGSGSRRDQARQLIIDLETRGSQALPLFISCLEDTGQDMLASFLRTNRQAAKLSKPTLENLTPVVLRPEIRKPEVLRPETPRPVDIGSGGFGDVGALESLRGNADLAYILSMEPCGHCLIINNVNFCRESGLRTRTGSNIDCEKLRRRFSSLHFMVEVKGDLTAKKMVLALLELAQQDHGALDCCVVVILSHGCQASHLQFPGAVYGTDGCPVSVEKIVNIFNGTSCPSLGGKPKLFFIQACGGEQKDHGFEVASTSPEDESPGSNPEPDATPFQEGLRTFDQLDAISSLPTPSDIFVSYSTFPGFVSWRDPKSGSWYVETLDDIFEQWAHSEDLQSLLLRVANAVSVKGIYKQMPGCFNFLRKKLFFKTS

[5] = target: T4, Histone-lysine N-methyltransferase NSD2 (Homo sapiens, UniProt O96028); type: biochemical
T4 sequence (O96028 whole entry): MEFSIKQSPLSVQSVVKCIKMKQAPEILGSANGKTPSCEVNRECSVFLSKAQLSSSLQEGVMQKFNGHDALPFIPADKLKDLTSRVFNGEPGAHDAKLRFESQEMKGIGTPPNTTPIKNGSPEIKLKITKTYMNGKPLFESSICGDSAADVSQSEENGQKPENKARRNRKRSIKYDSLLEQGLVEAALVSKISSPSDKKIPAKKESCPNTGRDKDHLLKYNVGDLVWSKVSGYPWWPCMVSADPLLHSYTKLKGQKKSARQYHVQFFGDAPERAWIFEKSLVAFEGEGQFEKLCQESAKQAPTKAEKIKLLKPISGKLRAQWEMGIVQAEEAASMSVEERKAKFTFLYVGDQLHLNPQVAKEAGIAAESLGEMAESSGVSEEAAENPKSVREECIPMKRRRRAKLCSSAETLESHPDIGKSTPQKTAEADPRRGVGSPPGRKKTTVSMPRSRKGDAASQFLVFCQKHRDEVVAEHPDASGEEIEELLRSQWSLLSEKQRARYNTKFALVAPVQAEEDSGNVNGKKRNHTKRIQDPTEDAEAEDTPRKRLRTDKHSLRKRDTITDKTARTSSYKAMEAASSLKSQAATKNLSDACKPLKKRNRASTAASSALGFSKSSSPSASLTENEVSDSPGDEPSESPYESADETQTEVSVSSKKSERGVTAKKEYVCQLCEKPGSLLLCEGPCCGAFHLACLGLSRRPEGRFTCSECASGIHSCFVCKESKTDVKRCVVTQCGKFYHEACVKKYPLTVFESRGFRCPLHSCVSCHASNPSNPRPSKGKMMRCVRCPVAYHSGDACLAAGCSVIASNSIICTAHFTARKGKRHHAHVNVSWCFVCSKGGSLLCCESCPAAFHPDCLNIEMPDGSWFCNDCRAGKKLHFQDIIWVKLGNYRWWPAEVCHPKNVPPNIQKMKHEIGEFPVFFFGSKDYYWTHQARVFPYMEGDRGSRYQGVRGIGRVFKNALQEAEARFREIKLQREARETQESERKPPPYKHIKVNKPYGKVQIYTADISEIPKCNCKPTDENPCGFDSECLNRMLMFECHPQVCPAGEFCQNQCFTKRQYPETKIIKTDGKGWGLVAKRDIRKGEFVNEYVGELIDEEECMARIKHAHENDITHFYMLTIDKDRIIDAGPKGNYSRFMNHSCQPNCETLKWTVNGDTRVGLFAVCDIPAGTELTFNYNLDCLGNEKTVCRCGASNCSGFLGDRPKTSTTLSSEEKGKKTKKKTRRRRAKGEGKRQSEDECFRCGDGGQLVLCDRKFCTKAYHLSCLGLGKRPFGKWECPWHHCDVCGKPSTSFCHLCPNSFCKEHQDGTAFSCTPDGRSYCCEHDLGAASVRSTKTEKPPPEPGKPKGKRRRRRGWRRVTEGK

[6] = target: Caspase-7 (Homo sapiens, UniProt P55210); experiment: human caspase-7 inhibitors, dose response, selectivity assay for caspase-6 inhibitor project, biochemical, DEVD-R110 fluorescence, cherry-pick (AID 743295)
[7] = target: Caspase-8 (Homo sapiens, UniProt Q14790); experiment: caspase-8 inhibition counter-screen, dose response, selectivity assay for caspase-6 inhibitor project, biochemical, Z-IETD-R110 fluorescence, cherry-picked samples (AID 743294)
[8] = target: T5, Caspase-3 (Homo sapiens, UniProt P42574); experiment: caspase-3 enzyme inhibitors, selectivity check, dose response, selectivity assay for caspase-6 allosteric inhibitor project, biochemical, fluorescence, cherry-picked samples (AID 743291)
T5 sequence (P42574 whole entry): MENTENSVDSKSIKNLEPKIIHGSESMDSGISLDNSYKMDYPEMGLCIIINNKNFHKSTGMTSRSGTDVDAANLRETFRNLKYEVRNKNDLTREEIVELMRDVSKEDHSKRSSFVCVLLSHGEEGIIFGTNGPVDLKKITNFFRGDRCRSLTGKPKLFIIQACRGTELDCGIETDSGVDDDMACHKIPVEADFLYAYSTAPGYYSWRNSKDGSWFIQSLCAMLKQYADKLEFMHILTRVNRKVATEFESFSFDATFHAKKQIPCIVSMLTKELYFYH

[9] = system: BJ; experiment: cytotoxicity toward BJ-TERT fibroblasts, dose response, cell-based, RAS-independent, luminescence (AID 1933); type: functional; conditions: Homo sapiens
[10] = system: BJ; experiment: cells; type: functional, cell-based; conditions: Homo sapiens
[11] = system: BJ; experiment: cytotoxicity toward BJ-TERT-LT-ST fibroblasts, dose response, cell-based, RAS-independent, luminescence (AID 1935); type: functional; conditions: Homo sapiens;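 note: BJ fibroblasts immortalized with TERT plus LT and ST oncogenes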
[12] = cytotoxicity toward DRD oncogenic fibroblasts, dose response, cell-based, non-viral oncogenic, luminescence (AID 1934); type: functional; conditions: Homo sapiens
[13] = target: Galanin receptor type 3 (Homo sapiens, UniProt O60755); experiment: Fluorescence-based cell-based primary high throughput dose response assay to identify antagonists of the Galanin Receptor 3 (GalR3).; type: functional
[14] = cells; type: functional, cell-based; conditions: HEK-CNG
[15] = target: COUP transcription factor 2 (Homo sapiens, UniProt P24468); experiment: Luminescence-based cell-based high throughput dose response assay to identify inhibitors of COUP-TFII (NR2F2).; type: functional;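 note: HEK293 cells transiently cotransfected with COUP-TFII expression vector and reporter; luciferase reporter luminescence driven by COUP-TFII from the pX2-168 reporter plasmid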
[16] = HeLa 2N DNA content increase, dose response, cell-based, IC50 (AID 1117349); type: functional
[17] = HeLa 4N DNA content increase, dose response, cell-based, IC50 (AID 1117351); type: functional
[18] = target: Paired box protein Pax-8 (Homo sapiens, UniProt Q06710); experiment: inhibitors of PAX8-driven TPO luciferase reporter, dose response, RMG-I cells, cherry-pick (AID 687027); type: functional, cell-based;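 note: luciferase reporter driven by Pax8 target thyroperoxidase promoter measured by SteadyGlo luminescence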
[19] = A2780 ovarian cancer cell cytotoxicity, dose response, cytotoxicity control, plate reader, dry powder samples (AID 743046); type: functional, cell-based
[20] = NIH:OVCAR-3 ovarian cancer cell cytotoxicity, dose response, PAX8 inhibitor project, plate reader, dry powder samples (AID 743044); type: functional, cell-based

Sequence of COUP transcription factor 2 (P24468 whole entry): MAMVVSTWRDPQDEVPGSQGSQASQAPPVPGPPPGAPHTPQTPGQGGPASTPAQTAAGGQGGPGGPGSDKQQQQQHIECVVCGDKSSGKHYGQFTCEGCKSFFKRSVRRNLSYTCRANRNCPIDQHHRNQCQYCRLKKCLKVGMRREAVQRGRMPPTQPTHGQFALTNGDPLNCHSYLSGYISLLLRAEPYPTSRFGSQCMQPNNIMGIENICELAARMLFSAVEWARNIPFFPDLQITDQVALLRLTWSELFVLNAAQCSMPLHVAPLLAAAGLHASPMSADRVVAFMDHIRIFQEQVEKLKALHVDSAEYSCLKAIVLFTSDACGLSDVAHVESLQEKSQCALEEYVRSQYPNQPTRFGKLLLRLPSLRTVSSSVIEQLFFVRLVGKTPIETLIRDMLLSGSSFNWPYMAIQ
Sequence of Paired box protein Pax-8 (Q06710 whole entry): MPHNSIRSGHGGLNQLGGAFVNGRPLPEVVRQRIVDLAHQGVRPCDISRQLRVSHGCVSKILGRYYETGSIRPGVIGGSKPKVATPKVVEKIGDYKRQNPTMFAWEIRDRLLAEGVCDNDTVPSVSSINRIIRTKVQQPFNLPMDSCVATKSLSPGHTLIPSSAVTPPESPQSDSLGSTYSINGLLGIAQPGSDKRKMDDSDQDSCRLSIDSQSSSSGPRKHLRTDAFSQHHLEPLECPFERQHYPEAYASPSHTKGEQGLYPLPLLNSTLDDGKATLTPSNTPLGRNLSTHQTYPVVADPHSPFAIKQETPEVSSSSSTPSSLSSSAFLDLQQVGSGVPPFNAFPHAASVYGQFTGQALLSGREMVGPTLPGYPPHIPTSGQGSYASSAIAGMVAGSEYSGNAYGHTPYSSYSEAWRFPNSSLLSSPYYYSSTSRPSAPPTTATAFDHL
Sequence of Caspase-7 (P55210 24-198 limits assumed): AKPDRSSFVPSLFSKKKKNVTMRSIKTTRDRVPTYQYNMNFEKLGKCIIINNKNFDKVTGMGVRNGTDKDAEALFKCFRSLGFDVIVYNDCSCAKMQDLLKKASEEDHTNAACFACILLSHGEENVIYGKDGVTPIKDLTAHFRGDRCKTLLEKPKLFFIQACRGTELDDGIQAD
Sequence of Caspase-7 (P55210 207-303 limits assumed): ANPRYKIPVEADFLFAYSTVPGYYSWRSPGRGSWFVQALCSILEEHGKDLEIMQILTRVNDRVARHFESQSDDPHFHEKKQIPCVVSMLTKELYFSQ
Sequence of Galanin receptor type 3 (O60755 whole entry): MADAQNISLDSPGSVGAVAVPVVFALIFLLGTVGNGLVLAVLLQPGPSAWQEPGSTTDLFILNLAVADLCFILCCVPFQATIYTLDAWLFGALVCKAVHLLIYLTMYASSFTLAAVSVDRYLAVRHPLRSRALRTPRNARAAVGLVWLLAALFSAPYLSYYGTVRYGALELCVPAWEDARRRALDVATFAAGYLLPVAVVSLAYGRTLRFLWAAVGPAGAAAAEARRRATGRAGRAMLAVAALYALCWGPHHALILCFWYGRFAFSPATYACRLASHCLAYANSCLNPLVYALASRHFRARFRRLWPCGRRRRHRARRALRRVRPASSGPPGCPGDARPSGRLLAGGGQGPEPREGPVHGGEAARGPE
Sequence of Caspase-8 (Q14790 217-374 limits assumed): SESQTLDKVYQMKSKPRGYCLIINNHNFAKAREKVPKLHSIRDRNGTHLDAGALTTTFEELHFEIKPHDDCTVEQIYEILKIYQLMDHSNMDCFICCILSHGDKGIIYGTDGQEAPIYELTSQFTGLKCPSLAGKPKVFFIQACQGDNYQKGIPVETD
Sequence of Caspase-8 (Q14790 385-479 limits assumed): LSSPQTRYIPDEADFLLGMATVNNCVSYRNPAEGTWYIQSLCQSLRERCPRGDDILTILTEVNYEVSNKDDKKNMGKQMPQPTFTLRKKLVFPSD

AC50 [3]: 3.48 µM (active)
AC50 [4]: 45.4 µM (active)
AC50 [5]: 6.27 µM (active)
AC50 [6]: 20.1 µM (active)
AC50 [7]: 49.5 µM (active)
AC50 [8]: 13.8 µM (active)
SMILES: COc1cc(N(C(C)=O)c2ccc(O)c(C(=O)O)c2)c2ncccc2c1
IC50 [1]: 7.7 µM (active)
IC50 [2]: 9.87 µM (active)

SMILES: COc1ccccc1N1C(C)=CC(=Cc2sc3ccccc3[n+]2C)C=C1C
EC50 [9]: 3.07 µM (inconclusive)
EC50 [10]: 2.54 µM (active)
EC50 [11]: 3.16 µM (inconclusive)
EC50 [12]: 6.24 µM (active)
IC50 [13]: 0.128 µM (active)
EC50 [14]: > 29.9 µM (inactive)
IC50 [15]: 0.617 µM (active)

SMILES: CN1CC[C@H](c2c(O)cc(O)c3c(=O)cc(-c4ccccc4Cl)oc23)[C@H](O)C1 [ALVOCIDIB HYDROCHLORIDE]
IC50 [16]: > 10 µM (inactive)
IC50 [17]: > 10 µM (inactive)

SMILES: C[C@@H]1CN([C@H](C)CO)C(=O)c2cc(NS(=O)(=O)c3ccc(Cl)cc3)ccc2O[C@@H](C)CCCCO[C@@H]1CN(C)Cc1ccc(Cl)c(Cl)c1
AC50 [18]: 11.7 µM (active)
AC50 [19]: 2.73 µM (active)
AC50 [20]: 49.5 µM (active)
